This note sets out measurements from ChEMBL document CHEMBL4602652, “Development of cyclic peptide derivatives from the N-terminal region of LANA for targeting the nucleosome acidic patch” (Bioorg Med Chem Lett, 2020).

Assay [1] is filed under the species Homo sapiens. The assay can be described thus: Inhibition of FITC-labelled LANA (1 to 23 residues) binding to recombinant human H2A/H2B harboring acidic patch at by fluorescence polarization assay. On the technique in general: In fluorescence polarisation assays a small probe gives low polarisation when free and higher when bound to something large.
The species entered for assay [2] is Homo sapiens. Nature of the assay: Inhibition of FITC-labelled LANA (1 to 23 residues) binding to recombinant human H2A/H2B harboring acidic patch at 100 uM by fluorescence polarization assay relative to control.
The test system of a further assay is HeLa. The assay can be described thus: (§1) Inhibition of FITC-labelled LANA peptide (1 to 23 residues) binding to human HeLa mononucleosomes by fluorescence polarization assay.
Assay [3] is described as follows: as §1.

pIC50, pKi: −log10 of the molar value. Active and inactive are the calls of the source. The calls are words filed in the database; no cut-off is given here. Peptide text beside a SMILES is read from it.

On to `CSCC[C@@H]1NC(=O)CNC(=O)[C@@H]2CCCN2C(=O)[C@H](C)NC(=O)CNC(=O)[C@H]([C@@H](C)O)NC(=O)[C@H](CO)NC(=O)[C@H](CCCNC(=N)N)NC(=O)CNC(=O)[C@H](CO)NC(=O)[C@H](CCCNC(=N)N)NC(=O)[C@H](CC(C)C)NC(=O)[C@H](CCCNC(=N)N)NC1=O` (cyclo(APGMRLRSGRSTG)), for which the inhibition (commonly the percentage by which the read-out fell short of the control) in the assay filed under Homo sapiens [1] is “Active”.

Regarding Ac-PGMRLRSGRSRGA-NH2, in the assay filed under Homo sapiens [1], the inhibition result was “Active”.

For Ac-PGMRLRSGRSKGA-NH2, the inhibition entry in the assay listed under Homo sapiens [1] was “Active”.

As to Ac-PGIRLRSGRSTGA-NH2, in the assay listed under Homo sapiens [1], the inhibition result was “Active”. Regarding Ac-PGMRLRSGRSHGA-NH2, the inhibition entry in the assay filed under Homo sapiens [1] was “Active”.

Take `CSCC[C@@H]1NC(=O)[C@H]([C@@H](C)O)NC(=O)[C@H](CO)NC(=O)[C@H](CCCNC(=N)N)NC(=O)CNC(=O)[C@H](CO)NC(=O)[C@H](CCCNC(=N)N)NC(=O)[C@H](CC(C)C)NC(=O)[C@H](CCCNC(=N)N)NC1=O` (cyclo(GRSTMRLRS)): the inhibition entry in the assay listed under Homo sapiens [1] is “Active”. On to Ac-PGVRLRSGRSTGA-NH2, for which the inhibition entry in the assay filed under Homo sapiens [1] was “Active”. Take Ac-MRLRSGRST-NH2: the inhibition entry in the assay listed under Homo sapiens [1] is “Active”.

Take Ac-PGMRLRSGRSTGA-NH2: in the assay filed under Homo sapiens [2], the inhibition amounted to 40%. As to Ac-PGFRLRSGRSTGA-NH2, the inhibition result in the assay filed under Homo sapiens [1] was “Active”. Consider Ac-GMRLRSGRSTG-NH2, for which, in the assay with HeLa, the inhibition result is “Dose-dependent effect”. The pIC50 – broadly, the IC50 on a negative log10 scale, so that one unit is a factor of ten – in assay [3] was 6.21. In the assay filed under Homo sapiens [1], the inhibition result is “Active”. Consider `CSCC[C@@H]1NC(=O)CNC(=O)CNC(=O)[C@H]([C@@H](C)O)NC(=O)[C@H](CO)NC(=O)[C@H](CCCNC(=N)N)NC(=O)CNC(=O)[C@H](CO)NC(=O)[C@H](CCCNC(=N)N)NC(=O)[C@H](CC(C)C)NC(=O)[C@H](CCCNC(=N)N)NC1=O` (cyclo(GGMRLRSGRST)), for which the inhibition in the assay filed under Homo sapiens [2] came out at 100%. Moreover, the inhibition entry in the assay on HeLa is “Dose-dependent effect”. Moreover, in assay [3], the pIC50 was 6.69 and the pKi (usually the Ki on a negative log10 scale, so that one unit is a factor of ten) is 7.21. Regarding Ac-PGLRLRSGRSTGA-NH2, in the assay listed under Homo sapiens [1], the inhibition result is “Active”.
